# Measurements: US20230112450A1, “COMBINED USE OF CTB006 AND PONATINIB” (Beijing Sinotau Bio-Pharmaceuticals Technology Co., Ltd., priority 2020, published 2023)
# B1: TRAIL: DR5 natural ligand TRAIL (Sino Biological) (protein, UniProt P50591 1-281, looked up)
# Tumor necrosis factor ligand …: MAMMEVQGGPSLGQTCVLIVIFTVLLQSLCVAVTYVYFTNELKQMQDKYSKSGIACFLKEDDSYWDPNDEESMNSPCWQVKWQLRQLVRKMILRTSEETISTVQEKQQNISPLVRERGPQRVAAHITGTRGRSNTLSSPNSKNEKALGRKINSWESSRSGHSFLSNLHLRNGELVIHEKGFYYIYSQTYFRFQEEIKENTKNDKQMVQYIYKYTSYPDPILLMKSARNSCWSKDAEYGLYSIYQGGIFELKENDRIFVSVTNEHLIDMDHEASFFGAFLVG
# How the values were obtained:
# [1] = test system: PDX model CS264; assay: Colorectal cancer PDX transplantation tumor model; type: in vivo, nude mice or NOD/SCID mice; details: day 32 after administration; CTB006 10 mg/kg iv qd, Ponatinib 30 mg/kg p.o qd
# Excerpt: (§4) To test the in vivo pharmacodynamic efficacy of CTB006 in combination with Ponatinib, several tumor animal models were selected for testing, including pancreatic cancer cells MIA-PACA-2 CDX model and multiple PDX models covering multiple cancers of intestinal cancer (CS237, CS263, CS264), lung cancer (CS225), and gastric cancer (CS266, GAS033). For mathematical statistics, ANOVA analysis was used, and P<0.05 indicates a statistically significant difference and is marked with *; P<0.01 indicates a highly significant statistical difference and is marked with **.
# (§5) Patient-derived transplantation tumor models were established subcutaneously in nude mice or NOD/SCID mice, which was administered with CTB006 alone (10 mg/kg, iv, qd), Ponatinib alone (30 mg/kg, p.o, qd) the combination of them, while the control group was given an equal volume of saline.
# [2] = test system: PDX model CS266; assay: Gastric cancer PDX transplantation tumor model; details: day 31; CTB006 10 mg/kg iv qd, Ponatinib 30 mg/kg p.o qd
# Procedure: To test the in vivo pharmacodynamic efficacy of CTB006 in combination with Ponatinib, several tumor animal models were selected for testing, including pancreatic cancer cells MIA-PACA-2 CDX model and multiple PDX models covering multiple cancers of intestinal cancer (CS237, CS263, CS264), lung cancer (CS225), and gastric cancer (CS266, GAS033).
# as §5
# At day 31 after administration, when the mean tumor volume of the negative control group and CTB006 alone group reached 1 cm^3, the negative control group was sacrificed, and the administration was stopped for 5-Fu positive control group, Ponatinib alone group and the combination group and the observation continued.
# [3] = test system: PDX model GAS033; assay: Gastric cancer PDX transplantation tumor model; type: in vivo, nude mice or NOD/SCID mice; details: day 16 after administration; CTB006 10 mg/kg iv qd, Ponatinib 30 mg/kg p.o qd
# Excerpt: as §4, §5
# [4] = test system: SGC-7901 cells; assay: Tumor cell survival by ATPlite after 24 h incubation; CDI; type: cell-based
# Procedure: (§1) The interaction between CTB006 antibody and Ponatinib: we used coefficient of drug interaction (CDI)^[1,2] to evaluate the combined effect of CTB006 antibody and chemotherapeutic drugs. CDI was calculated according to the following formula: CDI=AB/A×B; AB was the ratio of the detection values of the two-drug combination group to the control group (survival rate of the drug combination group), and A or B was the ratio of the detection values of each individual drug to the control group (survival rate of the drug alone group).
# (§2) The survival of each tumor cell was observed by ATPlite method after incubation at 37° C., 5% CO2 for 24 h.
# [5] = test system: SK-HEP-1 cells; assay: as above; type: cell-based
# Procedure: as §1, §2
# [6] = test system: Huh-1 cells; assay: as above; type: cell-based
# Procedure: as §1, §2
# [7] = test system: HT29 cells; assay: as above; type: cell-based
# Procedure: as §1, §2
# [8] = test system: N87 cells; assay: as above; type: cell-based
# Procedure: as §1, §2
# [9] = test system: TE1 cells; assay: as above; type: cell-based
# Procedure: as §1, §2
# [10] = test system: S2Lm7AA cells; assay: as above; type: cell-based
# Procedure: as §1, §2
# [11] = test system: MIA-Paca-2 transplanted tumor; assay: Pancreatic cancer CDX model, subcutaneous transplantation; details: CTB006 10 mg/kg iv qw, Ponatinib 30 mg/kg p.o qd, alone or in combination, 22 days; euthanized at tumor volume 1 cm^3
# Procedure: The CDX model was established by subcutaneous transplantation of MIA-Paca-2 in BALB/c nude mice (Vital River), and drug administration was started when the tumor volume was about 0.1 cm^3, and when it reached 1 cm^3, the animals were ethically euthanized and survival time was recorded. CTB006 (10 mg/kg, iv, qw) and Ponatinib (30 mg/kg, p.o, qd) were administered alone or in combination for treatment groups, and the control group was administered an equal volume of saline.
# [12] = test system: PDX model CS225; assay: Lung cancer PDX transplantation tumor model; type: in vivo, nude mice or NOD/SCID mice; details: day 28 after administration; CTB006 10 mg/kg iv qd, Ponatinib 30 mg/kg p.o qd
# Excerpt: as §4, §5
# [13] = test system: S2VP10 cells; assay: Tumor cell survival by ATPlite after 24 h incubation; CDI; type: cell-based; details: for CDI: DR5 agonist in combination with Ponatinib
# Procedure: as §1, §2
# (§3) Methods were as described above.
# [14] = test system: A549 cells; assay: as above; type: cell-based; details: for CDI: DR5 agonist in combination with Ponatinib
# Procedure: as §1, §2, §3
# [15] = test system: MCF-7 cells; assay: as above; type: cell-based; details: for CDI: DR5 agonist in combination with Ponatinib
# Procedure: as §1, §2, §3
# [16] = test system: PDX model CS263; assay: Colorectal cancer PDX transplantation tumor model
# Excerpt: as §4, §5
# [17] = test system: PDX model CS237; assay: Colorectal cancer PDX transplantation tumor model; type: in vivo, nude mice or NOD/SCID mice; details: day 52 after administration; CTB006 10 mg/kg iv qd, Ponatinib 30 mg/kg p.o qd
# Excerpt: as §4, §5
# [18] = test system: primary tumor cells S2; assay: Killing of primary tumor cells from ovarian cancer ascites; CDI; type: cell-based
# Procedure: as §1, §2
# [19] = test system: primary tumor cells S1; assay: as above; type: cell-based
# Procedure: as §1, §2
molecule,measurement,setting,value
O=c1[nH]cc(F)c(=O)[nH]1 [5-Fu],tumor inhibition rates (TGI),[1],31.2%
same,tumor inhibition rates (TGI),[2],57.5%
Cc1ccc(C(=O)Nc2ccc(CN3CCN(C)CC3)c(C(F)(F)F)c2)cc1C#Cc1cnc2cccnn12 [Ponatinib],tumor inhibition rate (TGI),[3],37%
same,tumor inhibition rates (TGI),[1],32.4%
same,tumor inhibition rates (TGI),[2],87.7%
same,Survival Rate (%),[4]; Ponatinib alone 15.625 nM,100.08%
same,Survival Rate (%),[4]; Ponatinib alone 31.25 nM,98.30%
same,Survival Rate (%),[4]; Ponatinib alone 62.5 nM,99.90%
same,Survival Rate (%),[4]; Ponatinib alone 125 nM,95.83%
same,Survival Rate (%),[4]; Ponatinib alone 250 nM,86.80%
same,Survival Rate (%),[4]; Ponatinib alone 500 nM,75.77%
same,Survival Rate (%),[4]; Ponatinib alone 1000 nM,61.42%
same,Survival Rate (%),[5]; Ponatinib alone 15.625 nM,95.48%
same,Survival Rate (%),[5]; Ponatinib alone 31.25 nM,92.47%
same,Survival Rate (%),[5]; Ponatinib alone 62.5 nM,92.34%
same,Survival Rate (%),[5]; Ponatinib alone 125 nM,84.53%
same,Survival Rate (%),[5]; Ponatinib alone 250 nM,77.45%
same,Survival Rate (%),[5]; Ponatinib alone 500 nM,68.54%
same,Survival Rate (%),[5]; Ponatinib alone 1000 nM,67.85%
same,Survival Rate (%),[6]; Ponatinib alone 15.625 nM,97.49%
same,Survival Rate (%),[6]; Ponatinib alone 31.25 nM,92.59%
same,Survival Rate (%),[6]; Ponatinib alone 62.5 nM,91.15%
same,Survival Rate (%),[6]; Ponatinib alone 125 nM,83.68%
same,Survival Rate (%),[6]; Ponatinib alone 250 nM,79.87%
same,Survival Rate (%),[6]; Ponatinib alone 500 nM,70.61%
same,Survival Rate (%),[6]; Ponatinib alone 1000 nM,64.68%
same,Survival Rate (%),[7]; Ponatinib alone 15.625 nM,102.78%
same,Survival Rate (%),[7]; Ponatinib alone 31.25 nM,103.51%
same,Survival Rate (%),[7]; Ponatinib alone 62.5 nM,102.93%
same,Survival Rate (%),[7]; Ponatinib alone 125 nM,95.77%
same,Survival Rate (%),[7]; Ponatinib alone 250 nM,84.39%
same,Survival Rate (%),[7]; Ponatinib alone 500 nM,87.91%
same,Survival Rate (%),[7]; Ponatinib alone 1000 nM,80.77%
same,Survival Rate (%),[8]; Ponatinib alone 15.625 nM,87.89%
same,Survival Rate (%),[8]; Ponatinib alone 31.25 nM,83.79%
same,Survival Rate (%),[8]; Ponatinib alone 62.5 nM,84.36%
same,Survival Rate (%),[8]; Ponatinib alone 125 nM,83.71%
same,Survival Rate (%),[8]; Ponatinib alone 250 nM,82.65%
same,Survival Rate (%),[8]; Ponatinib alone 500 nM,84.46%
same,Survival Rate (%),[8]; Ponatinib alone 1000 nM,82.19%
same,Survival Rate (%),[9]; Ponatinib alone 15.625 nM,107.94%
same,Survival Rate (%),[9]; Ponatinib alone 31.25 nM,103.25%
same,Survival Rate (%),[9]; Ponatinib alone 62.5 nM,104.04%
same,Survival Rate (%),[9]; Ponatinib alone 125 nM,100.27%
same,Survival Rate (%),[9]; Ponatinib alone 250 nM,97.30%
same,Survival Rate (%),[9]; Ponatinib alone 500 nM,89.97%
same,Survival Rate (%),[9]; Ponatinib alone 1000 nM,73.00%
same,Survival Rate (%),[10]; Ponatinib alone 15.625 nM,90.79%
same,Survival Rate (%),[10]; Ponatinib alone 31.25 nM,90.05%
same,Survival Rate (%),[10]; Ponatinib alone 62.5 nM,85.82%
same,Survival Rate (%),[10]; Ponatinib alone 125 nM,87.89%
same,Survival Rate (%),[10]; Ponatinib alone 250 nM,79.85%
same,Survival Rate (%),[10]; Ponatinib alone 500 nM,76.76%
same,Survival Rate (%),[10]; Ponatinib alone 1000 nM,77.11%
same,median survival time,[11],34.5 days
same,tumor inhibition rates (TGI),[12],50%
same,Survival Rate (%),[13]; Ponatinib alone 15.625 nM,98.02%
same,Survival Rate (%),[13]; Ponatinib alone 31.25 nM,97.47%
same,Survival Rate (%),[13]; Ponatinib alone 62.5 nM,99.87%
same,Survival Rate (%),[13]; Ponatinib alone 125 nM,96.84%
same,Survival Rate (%),[13]; Ponatinib alone 250 nM,87.54%
same,Survival Rate (%),[13]; Ponatinib alone 500 nM,75.12%
same,Survival Rate (%),[13]; Ponatinib alone 1000 nM,69.06%
same,Survival Rate (%),[14]; Ponatinib alone 15.625 nM,101.54%
same,Survival Rate (%),[14]; Ponatinib alone 31.25 nM,106.99%
same,Survival Rate (%),[14]; Ponatinib alone 62.5 nM,105.05%
same,Survival Rate (%),[14]; Ponatinib alone 125 nM,107.07%
same,Survival Rate (%),[14]; Ponatinib alone 250 nM,104.14%
same,Survival Rate (%),[14]; Ponatinib alone 500 nM,93.76%
same,Survival Rate (%),[14]; Ponatinib alone 1000 nM,81.32%
same,Survival Rate (%),[15]; Ponatinib alone 15.625 nM,102.70%
same,Survival Rate (%),[15]; Ponatinib alone 62.5 nM,103.26%
same,Survival Rate (%),[15]; Ponatinib alone 250 nM,94.14%
same,Survival Rate (%),[15]; Ponatinib alone 1000 nM,68.81%
same,tumor inhibition rates (TGI),"[16]; day 44 after administration, CTB006 10 mg/kg iv qd, Ponatinib 30 mg/kg p.o qd",45.3%
same,median survival,"[16]; time to reach the mean tumor volume of 1.0 cm^3 as cutoff, administration stopped at day 44",56 days
same,tumor inhibition rate (TGI),[17],43.8%
same,Survival Rate (%),[18]; Ponatinib alone 25 nM,101.93%
same,Survival Rate (%),[18]; Ponatinib alone 50 nM,109.27%
same,Survival Rate (%),[18]; Ponatinib alone 100 nM,98.46%
same,Survival Rate (%),[18]; Ponatinib alone 200 nM,90.46%
same,Survival Rate (%),[19]; Ponatinib alone 25 nM,89.60%
same,Survival Rate (%),[19]; Ponatinib alone 50 nM,101.09%
same,Survival Rate (%),[19]; Ponatinib alone 100 nM,85.81%
same,Survival Rate (%),[19]; Ponatinib alone 200 nM,82.23%
CC(=O)O[C@H]1C(=O)[C@@]2(C)[C@H]([C@H](OC(=O)c3ccccc3)[C@]3(O)C[C@H](OC(=O)[C@H](O)[C@@H](NC(=O)c4ccccc4)c4ccccc4)C(C)=C1C3(C)C)[C@]1(OC(C)=O)CO[C@@H]1C[C@@H]2O [Taxol],tumor inhibition rates (TGI),[12],50%
"AMG655: DR5 agonistic monoclonal antibody Conatumumab (AMG655, Amgen)",CDI,[13],0.8123
same,CDI,[14],0.6362
same,CDI,[15],0.317
same,killing effect,[15]; drug alone,significant killing effect
same,killing effect,[15]; used in combination,more significant
B1,CDI,[13],0.5179
same,CDI,[14],0.7329
same,CDI,[15],0.3303
same,killing effect,[15]; drug alone,did not have a significant killing effect
